According to a compilation of properties of binary mixtures (doi:10.5772/14848):

Experiment: xn = mol fraction of the nth substance listed
Details: 101 kPa

CCC[N+]1(C)CCCC1.O=S(=O)([N-]S(=O)(=O)C(F)(F)F)C(F)(F)F + O=C1CCCO1
electrical conductivity [S/m]
Details | 278.15 K | 288.15 K | 298.15 K | 308.15 K | 318.15 K | 328.15 K | 338.15 K | 348.15 K | 358.15 K
x1 = 0.0657 | 0.831 | 0.987 | 1.14 | 1.3 | 1.46 | – | 1.8 | 1.96 | –
x1 = 0.1741 | 0.965 | 1.18 | 1.39 | – | 1.86 | 2.12 | 2.35 | – | 2.82
x1 = 0.3874 | – | 0.765 | 0.979 | 1.22 | 1.47 | 1.74 | 2 | – | 2.56
